Assay: Pramlintide solubility in DMSO and DMSO-water co-solvents (visual inspection)
Format: physicochemical
Conditions: pH memory 2.0; 20 mg/mL in neat DMSO
Procedure: • 3b. […] The resulting solutions are assessed visually for clarity and/or analyzed for light scattering using visible spectroscopy at […], and used in various downstream applications.
Solutions of pramlintide were prepared at a concentration of 2 mg/mL in 10 mM citrate, pH 2.0, or 10 mM citrate, pH 4.0, each with or without 2 mg/mL trehalose. The solutions were dried by centrifugation under vacuum for approximately 3.5 hours at 25-30° C., or lyophilized as described above.

SMILES: CC[C@H](C)[C@H](NC(=O)[C@@H]1CCCN1C(=O)CNC(=O)[C@H](Cc1ccccc1)NC(=O)[C@H](CC(N)=O)NC(=O)[C@H](CC(N)=O)NC(=O)[C@H](CO)NC(=O)[C@H](CO)NC(=O)[C@H](Cc1c[nH]cn1)NC(=O)[C@@H](NC(=O)[C@H](CC(C)C)NC(=O)[C@H](Cc1ccccc1)NC(=O)[C@H](CC(N)=O)NC(=O)[C@H](C)NC(=O)[C@H](CC(C)C)NC(=O)[C@H](CCCNC(=N)N)NC(=O)[C@H](CCC(N)=O)NC(=O)[C@@H](NC(=O)[C@H](C)NC(=O)[C@@H]1CSSC[C@H](NC(=O)[C@@H](N)CCCCN)C(=O)N[C@@H](CC(N)=O)C(=O)N[C@@H]([C@@H](C)O)C(=O)N[C@@H](C)C(=O)N[C@@H]([C@@H](C)O)C(=O)N1)[C@@H](C)O)C(C)C)C(=O)N[C@@H](CC(C)C)C(=O)N1CCC[C@H]1C(=O)N1CCC[C@H]1C(=O)N[C@H](C(=O)N[C@@H](CC(N)=O)C(=O)N[C@H](C(=O)NCC(=O)N[C@@H](CO)C(=O)N[C@@H](CC(N)=O)C(=O)N[C@H](C(=O)N[C@@H](Cc1ccc(O)cc1)C(N)=O)[C@@H](C)O)C(C)C)[C@@H](C)O [pramlintide]
- appearance of solution by visual inspection: flowable and completely clear
